This assay addresses T1, human A3AR (Homo sapiens, UniProt P0DMS8).
T1 sequence (P0DMS8 1-318): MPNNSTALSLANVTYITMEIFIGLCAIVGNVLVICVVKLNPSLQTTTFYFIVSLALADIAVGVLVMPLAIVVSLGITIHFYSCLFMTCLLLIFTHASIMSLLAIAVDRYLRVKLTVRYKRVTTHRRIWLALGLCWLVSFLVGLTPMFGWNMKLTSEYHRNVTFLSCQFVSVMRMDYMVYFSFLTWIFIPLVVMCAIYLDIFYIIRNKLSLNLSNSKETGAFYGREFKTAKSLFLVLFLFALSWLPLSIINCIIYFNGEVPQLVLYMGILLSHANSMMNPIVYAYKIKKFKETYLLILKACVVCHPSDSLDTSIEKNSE
It is filed as binding.

The record followed here is paper PMC9037833 (RSC Advances, 2021).

The structures appear in SMILES notation.

By Ki is commonly meant a measure of affinity in units of concentration, obtained from inhibition or displacement.

With `CCSc1nc(N)c2ncn([C@H]3[C@H](O)[C@H](O)[C@]4(CO)C[C@H]34)c2n1` [Compound 8b, (1R,2R,3S,4R,5S)-4-(6-Amino-2-(ethylthio)-9H-purin-9-yl)-1-(hydroxymethyl)bicyclo[3.1.0]hexane-2,3-diol], the Ki amounted to 970 ± 60 nM.

As to `CCCCCCSc1nc(N)c2ncn([C@H]3[C@H](O)[C@H](O)[C@]4(CO)C[C@H]34)c2n1` [Compound 8c, (1R,2R,3S,4R,5S)-4-(6-Amino-2-(hexylthio)-9H-purin-9-yl)-1-(hydroxymethyl)bicyclo[3.1.0]hexane-2,3-diol], the affinity, expressed as Ki, was 548 ± 44 nM.

As to `Nc1nc(SC2CCCCC2)nc2c1ncn2[C@H]1[C@H](O)[C@H](O)[C@]2(CO)C[C@H]12` [Compound 8d, (1R,2R,3S,4R,5S)-4-(6-Amino-2-(cyclohexylthio)-9H-purin-9-yl)-1-(hydroxymethyl)bicyclo[3.1.0]hexane-2,3-diol], the inhibitory constant (Ki) was 1080 ± 90 nM.

Consider `Nc1nc(SCc2ccccc2)nc2c1ncn2[C@H]1[C@H](O)[C@H](O)[C@]2(CO)C[C@H]12` [Compound 8e, (1R,2R,3S,4R,5S)-4-(6-Amino-2-(benzylthio)-9H-purin-9-yl)-1-(hydroxymethyl)bicyclo[3.1.0]hexane-2,3-diol], for which the inhibitory constant (Ki) is 49.8 ± 5.5 nM. In addition, the “fold higher A3AR affinity than 8a” value (ratio of Ki values vs 8a at hA3AR) came to 30 fold.

Compound `Nc1nc(SCCc2ccccc2)nc2c1ncn2[C@H]1[C@H](O)[C@H](O)[C@]2(CO)C[C@H]12` [Compound 8f, (1R,2R,3S,4R,5S)-4-(6-Amino-2-(phenethylthio)-9H-purin-9-yl)-1-(hydroxymethyl)bicyclo[3.1.0]hexane-2,3-diol] had a Ki of 291 ± 89 nM.

`COc1nc(N)c2ncn([C@H]3[C@H](O)[C@H](O)[C@]4(CO)C[C@H]34)c2n1` [Compound 8g, (1R,2R,3S,4R,5S)-4-(6-Amino-2-methoxy-9H-purin-9-yl)-1-(hydroxymethyl)bicyclo[3.1.0]hexane-2,3-diol] registered a Ki of 1140 ± 84 nM.
